Laboratory results reported in patent US11786492B2, “Therapeutic agent for phosphodiesterase inhibition and its related disorders” (Novalead Pharma Inc, priority 2017, dated 2023).

How the values were obtained:
[1] = test system: Imiquimod induced psoriasis in BALB/c mice; assay: Imiquimod induced psoriasis model in Balb/c mice
Description: BALB/c mice (Sex: Female, Age: 7-8 Weeks) were used for induction of psoriasis using IMQ. Topical application of imiquimod (IMQ) in mice can induce and exacerbate psoriasis closely resembling human psoriasis. […] 3%, 4% and 5% and positive control of Tenovate (Clobetasol) 0.05% cream. In all 63 mg cream containing 5% of IMQ was applied to dorsal area (shaved back) and right ear for 8 days. Topical formulations from Example 7 were used during this experiment.
The parameters investigated were ear thickness change, % inhibition of ear inflammation, Psoriatic Area Severity Index (PASI). Histopathology was performed of right ear and dorsal skin by H & E staining. The biomarker in this study was inflammatory cytokine IL-23 analyzed by ELISA obtained from tissue lysate of ear region where IMQ and doses were applied.

[2] = test system: Human IL-17A; assay: IL-17A release from stimulated PBMCs, ELISA; assay type: cell-based; settings: 1 μM; PMA+Ionomycin, 18 hrs
Description: (§1) Fresh human blood from healthy volunteer was collected in anticoagulant (5 mM) ethylene diamine tetra acetic acid (EDTA) containing tubes. The growth medium used was RPMI-1640 medium (with 3% FBS) and incubated at 37° C. for 60 mins in a 5% CO2 incubator with vehicle used as 1% DMSO. The cell viability was checked at various time points using Alamar blue and fluorescence readings were taken at excitation of 544 nm and emission of 590 nm.
(§2) PBMCs were stimulated with different stimulators as follows: • a. Cells were exposed to stimulator LPS at 100 ng/mL for 18 hrs to stimulate TNF-α, IL-6, IFN-γ, IL10, IL-1β • b. Cells were exposed to stimulator IFN-γ+LPS at 100 ng/mL+1 μg/mL for 18 hrs to stimulate IL-12 • c. Cells were exposed to stimulator PMA+Ionomycin at 50 ng/mL+1 μg/mL for 18 hrs to stimulate IL-23, IL-22, IL-17A, IL-17F
(§3) After 18 hrs supernatants were collected and centrifuged to remove any cell debris and aliquots were used for ELISA.

[3] = test system: human PBMCs; assay: Cell viability of human PBMCs, Alamar blue; assay type: cell-based; settings: 3 μM
Description: as §1

[4] = test system: Human IL-12; assay: IL-12 release from stimulated PBMCs, ELISA; assay type: cell-based; settings: 1 μM; IFN-γ+LPS, 18 hrs
Description: as §1, §2, §3

[5] = test system: Human IL-6; assay: IL-6 release from stimulated PBMCs, ELISA; assay type: cell-based; settings: 1 μM; LPS 100 ng/mL, 18 hrs
Description: as §1, §2, §3

[6] = test system: Human IL-22; assay: IL-22 release from stimulated PBMCs, ELISA; assay type: cell-based; settings: 1 μM; PMA+Ionomycin, 18 hrs
Description: as §1, §2, §3

[7] = test system: Human TNF-α; assay: TNF-α release from stimulated PBMCs, ELISA; assay type: cell-based; settings: 1 μM; LPS 100 ng/mL, 18 hrs
Description: as §1, §2, §3

[8] = test system: Human IL-10; assay: IL-10 release from stimulated PBMCs, ELISA; assay type: cell-based; settings: 1 μM; LPS 100 ng/mL, 18 hrs
Description: as §1, §2, §3

[9] = test system: HaCaT cells; assay: Cell viability of HaCaT cells, Alamar blue; assay type: cell-based, human; settings: 3 μM
Description: (§4) HaCaT cells were maintained in T-75 cm2 flask in Dulbecco's modified Eagle medium supplemented with FBS (10%), L-glutamine (2 mM), penicillin (100 ug/ml), streptomycin (100 ug/ml) at 37° C. in 5% CO2 incubator. Cell growth was maintained to 70-80% confluence for seeding and vehicle used was 1% DMSO. The cell viability was checked at various time points using Alamar blue and fluorescence readings were taken at excitation of 544 nm and emission of 590 nm.

[10] = test system: Human IL-17F; assay: IL-17F release from stimulated PBMCs, ELISA; assay type: cell-based; settings: 1 μM; PMA+Ionomycin, 18 hrs
Description: as §1, §2, §3

[11] = test system: IL-6; assay: IL-6 release from stimulated HaCaT cells, ELISA; assay type: cell-based, human; settings: 1 μM; IFN-γ 50 ng/mL, 48 hrs
Description: as §4
(§5) HaCaT cells were stimulated with different stimulators as follows: • a. Cells were exposed to stimulator LPS at 1 μg/mL for 48 hrs to stimulate IL-1β • b. Cells were exposed to stimulator IFN-γ at 50 ng/mL for 48 hrs to stimulate TNF-α, IL-6
(§6) After 48 hrs supernatants were collected and centrifuged to remove any cell debris and aliquots were used for ELISA.

[12] = test system: Human IFN-γ; assay: IFN-γ release from stimulated PBMCs, ELISA; assay type: cell-based; settings: 1 μM; LPS 100 ng/mL, 18 hrs
Description: as §1, §2, §3

[13] = test system: TNF-α; assay: TNF-α release from stimulated HaCaT cells, ELISA; assay type: cell-based, human; settings: 1 μM; IFN-γ 50 ng/mL, 48 hrs
Description: as §4, §5, §6

[14] = test system: Human IL-1β; assay: IL-1β release from stimulated PBMCs, ELISA; assay type: cell-based; settings: 1 μM; LPS 100 ng/mL, 18 hrs
Description: as §1, §2, §3

C[C@H]1C[C@H]2[C@@H]3CCC4=CC(=O)C=C[C@]4(C)[C@@]3(F)[C@@H](O)C[C@]2(C)[C@@]1(O)C(=O)CCl [Clobetasol]
% Body Weight Change ([1]; 0.05% cream, positive control): −16.9%
% inhibition of Ear inflamn. ([1]; 0.05% cream, positive control): 86.9%
Histopathology Scores Epidermal Thickness ([1]; 0.05% cream, positive control): 4.3 ± 0.3
Histopathology Scores Hyperkeratosis ([1]; 0.05% cream, positive control): 1.0 ± 0.0
Histopathology Scores Rete Peg Prolifern. ([1]; 0.05% cream, positive control): 0.3 ± 0.3
PASI score ([1]; 0.05% cream, positive control): 4.83 ± 2.3
Spleen weight ([1]; 0.05% cream, positive control, Day 9): 49.3 ± 10.3 mg
IL23 Levels ([1]; 0.05% cream, positive control, ear tissue lysate): 64.1 ± 7.4 pg/mL
Spleen weight vs disease control (in words) ([1]; Niclosamide 2%, Nitazoxanide 3% and 5%, Clobetasol 0.05%, Day 9): reduction in spleen weight was observed to be significant
Body weight change (in words) ([1]; all tested doses, Clobetasol Day 7 to Day 9): significant body weight change
IL-23 level in ear tissue homogenates (in words) ([1]; different doses): reduces IL-23 levels below that of normal control

C[C@@H]1C[C@H]2[C@@H]3CCC4=CC(=O)C=C[C@]4(C)[C@@]3(F)[C@@H](O)C[C@]2(C)[C@@]1(O)C(=O)CO [Dexamethasone]
Human IL-17A concentration [2]: 186 pg/mL
% Viability (±S.E.M.) ([3]; 24 hrs): 82 ± 6%
% Viability (±S.E.M.) ([3]; 48 hrs): 78 ± 1%
% Viability (±S.E.M.) ([3]; 72 hrs): 81 ± 1%
Human IL-12 concentration [4]: 163 pg/mL
Human IL-6 concentration [5]: 3052 pg/mL
Human IL-22 concentration [6]: 2496 pg/mL
Human TNF-α concentration [7]: 325 pg/mL
Human IL-10 concentration [8]: 710 pg/mL
% Viability (±S.E.M.) ([9]; 24 hrs): 46 ± 3%
% Viability (±S.E.M.) ([9]; 48 hrs): 18 ± 2%
% Viability (±S.E.M.) ([9]; 72 hrs): 8 ± 0%
Human IL-17F concentration [10]: 322 pg/mL
IL-6 Conc. [11]: 33 ± 1 pg/mL
Human IFN-γ concentration [12]: 165 pg/mL
TNF-α Conc. [13]: 3.2 ± 0 pg/mL
Human IL-1β concentration [14]: 174 pg/mL
